Row | SMILES | solubility (mole fraction) (in ethanol, 283.15 K) | solubility (mole fraction) (in ethanol, 288.15 K) | solubility (mole fraction) (in ethanol, 293.15 K) | solubility (mole fraction) (in ethanol, 298.15 K) | solubility (mole fraction) (in ethanol, 303.15 K) | solubility (mole fraction) (in ethanol, 308.15 K) | solubility (mole fraction) (in ethanol, 313.15 K) | solubility (mole fraction) (in ethanol, 318.15 K) | solubility (mole fraction) (in ethanol, 323.15 K) | solubility (mole fraction) (in water, 283.15 K) | solubility (mole fraction) (in water, 288.15 K) | solubility (mole fraction) (in water, 293.15 K) | solubility (mole fraction) (in water, 298.15 K) | solubility (mole fraction) (in water, 303.15 K) | solubility (mole fraction) (in water, 308.15 K) | solubility (mole fraction) (in water, 313.15 K) | solubility (mole fraction) (in water, 318.15 K) | solubility (mole fraction) (in water, 323.15 K)
1 | O=C1c2cccc(O)c2C(=O)c2c(O)cc(CO)cc21 | 2.21e-05 | 2.58e-05 | 3.15e-05 | 3.83e-05 | 4.45e-05 | 5.2e-05 | 6.32e-05 | 7.71e-05 | 9e-05 | 3.32e-07 | 4.51e-07 | 5.84e-07 | 8.17e-07 | 1.15e-06 | 1.58e-06 | 2.1e-06 | 2.72e-06 | 3.9e-06
2 | Cc1cc(O)c2c(c1)C(=O)c1cc(O)cc(O)c1C2=O | 8.37e-05 | 9.39e-05 | 0.000112 | 0.000132 | 0.00015 | 0.00017 | 0.000203 | 0.000231 | 0.000268 | 3.2e-08 | 4.6e-08 | 6e-08 | 8.2e-08 | 1e-07 | 1.32e-07 | 1.79e-07 | 2.15e-07 | 2.79e-07

— BigSolDB 2.1
